Experimental data: US5098613A, “Anti-inflammatory agents” (Eli Lilly and Company, priority 1990, dated 1992)
Counter-ions that a name gives are not always drawn.

Experiments:
[1] = system: IL-1 induced T-cell Proliferation; experiment: Anti IL-1 Activity (Thymocyte Assay): suppression of IL-1 induced T-cell proliferation; assay type: cell-based, C3H/HeJ male mice; conditions: mouse thymocytes, 48 hours, read-out: Percent T-cell suppression; for inhibition at 1 µg/mL: 1 mcg/ml; for inhibition at 10 µg/mL: 10 mcg/ml
Description: Thymus from 3-4 week old C3H/HeJ male mice and were passed through a #100 mesh screen to make a single cell suspension. The cells were suspended in RPMI-1640 supplemented with 2×10^-5 M 2-mercaptoethanol, 3% fetal calf serum, and 1% Penicillin/Streptomycin. The cell suspension was placed in a tissue culture flask and incubated at 37° C. in 5% carbon dioxide in air for 1-2 hours. The thymocytes were decanted, leaving adherent cells behind, and the liquid was centrifuged at 1400 rpm for 10 minutes. After decanting the supernatant, the cells were resuspended and counted with a hemocytometer. The density was adjusted to […]. Fifty μ1 of the suspension were added to each well of a 96-well microtiter plate, followed by the addition of 25 μl of PHA and 25 μl IL-1 (1:25 dilution of a 10 mcg/ml stock solution) per well.
Each compound to be tested was dissolved in 30% DMSO/70% PBS to make a stock solution of 1 mg/ml. Fifteen μl of each compound were added to 300 μl of media in the serial dilution plate. Twenty-five μl of each drug were added to the test plate in quadruplicate wells across the plate. The plate was incubated at 37° C. in 5% carbon dioxide in air for 48 hours. The wells were pulsed with tritiated thymidine (5 μCi.well) for 4 hours before harvesting on a Skatron cell harvester. The filter discs were placed in mini-vials, scintillation fluid (Tol-Pop) was added, and the vials counted. The percent of counts for each vial compared with control samples wherein no compound was added (vehicles only) was determined for each compound and are reported as Table III below as the percent T-ce1 suppression.

[2] = molecular target: T1, leukotriene B4 specific receptor on the membrane of human neutrophils (Homo sapiens, UniProt Q15722); experiment: Inhibition of Binding of ^3 H-LTB4 to Peripheral Human Neutrophils; conditions: 4° C., 10 minutes; for inhibition at 10 µM: drug concentration 10^-5 M, read-out: LTB4 Binding Inhibition; for inhibition at 1 µM: drug concentration 10^-6 M
T1 construct: incubating neutrophils (1×10^7 cells) with 0.1-0.2 nM ^3 H-LTB4; endogenous in cells; host or cells: human peripheral blood neutrophils (buffy coats of two blood donors)
Description: The effectiveness of compounds to inhibit the binding of leukotriene B4 to a specific receptor on the membrane of human neutrophils was measured by using an adaptation of a radio-ligand binding assay developed by Goldman and Goetzl, J. Immunol., 129, 1600 (1982). Other investigators have developed similar assays (see, e.g., Kreisle, et al., J. Exp. Med., 157, 628 (1983) and Lin, et al., Prostaglandins, 28, 837 (1984)).
Cells used in the assay were isolated by standard techniques of centrifugation on Ficol-Hypaque, dextran 70 sedimentation and hypotonic lysis. The following procedure was used. Freshly-prepared buffy coat layers from two individuals were obtained from a local blood donor center. The cells were mixed and diluted to 484 ml. with phosphate buffered saline containing heparin (10 units/ml) and heat-inactivated calf serum (5%). This was divided into 20 ml. aliquots and the aliquots layered on top of Ficoll-Paque (12 ml.). The material was then centrifuged at 500 g. for 40 minutes at room temperature. The resulting upper layer of platelets and mononuclear cells was discarded. The lower layer containing erythrocytes and neutrophils was retained. Buffer was added (1 ml. per 4 ml. of lower layer) and the suspension mixed. For each milliliter of this mixture, 0.33 ml. of 6% Macrodex was added. After stirring, the cels were allowed to sediment for 1 hour at 37° C. The resulting erythrocyte pellet was discarded and the neutrophil enriched supernatant fluid centrifuged at 500 g. for 10 minutes at 4° C. Erythrocytes still present in this cell pellet were lysed by incubating the cells with 5-8 ml. ice-cold distilled water for 30-45 seconds. Subsequently, the volume was made up to 50 ml. by addition of ice-cold buffer and the cells resuspended. The suspension was then centrifuged at 300 g. for 10 minutes at 4° C. The cells were finally resuspended at a cell density of 2×10^7 cells/ml in the assay buffer. This buffer Consisted of Hanks' balanced salt solution and 0.1% ovalbumin (pH 7.3).
The radio-ligand binding assay was conducted by incubating neutrophils (1×10^7 cells) with 0.1-0.2 nM ^3 H-LTB4 (sp. act. 150-220 Curies/mmol) and test compound (1×10^-5 M and 1×10^-6 M) for 10 minutes at 4° C. The amount of bound ^3 H-LTB4 was then measured and compared with the amount bound in the absence of test compound. The assay was carried out in microcentrifuge tubes by adding first 10 μl test compound dissolved in DMSO, followed by adding 20 μl ^3 H-LTB4 diluted in assay buffer, and finally adding 500 μl of the cell suspension pension. At the end of the 10 minutes incubation, 300 μl of a mixture of dibutyl and dinonyl phthalate (7:2) were added and the tubes centrifuged for 2 minutes in a microcentrifuge. The radioactivity bound to the cell pellet was measured by scintillation spectroscopy. Appropriate corrections for nonspecific bonding of ^3 H-LTB4 were made.

[3] = system: Arachidonic Acid Induced Ear Edema; experiment: Arachidonic Acid-Induced Ear Edema Assay; assay type: in vivo, Female BALB/C mice; conditions: Mus musculus, 1 h, topical, one hour prior to arachidonic acid, read-out: Percent Inhibition of Ear Swelling; for inhibition in vivo at 0.05 %: 0.05% in ethanol gel; for inhibition in vivo at 1 %: 1% in ethanol gel
Description: Female BALB/C mice (Charles River; 18-20 rams) were divided into groups of five. Arachidonic acid was dissolved in ethanol at a concentration of 200 mg/ml. Each mouse received 2 mg/ear of arachidonic acid on the inner surface of the right ear. This dose of phlogistic was applied by an automatic pipette in 10 mcl volumes. The left ear (control) received ethanol. Drugs were applied topically in an ethanol-based gel to the entire outer surface of both ears one hour prior to arachidonic acid application. Edema was measured by the increase in ear weight. An hour after arachidonic acid solution or vehicle was applied, an ear sample of 7 mm in diameter was obtained from both ears. Ear edema was calculated by subtracting the […], dividing by the weight of the left/Control ear, and averaging the results for each group of mice according to compound and concentration.

T1 sequence (Q15722 whole entry): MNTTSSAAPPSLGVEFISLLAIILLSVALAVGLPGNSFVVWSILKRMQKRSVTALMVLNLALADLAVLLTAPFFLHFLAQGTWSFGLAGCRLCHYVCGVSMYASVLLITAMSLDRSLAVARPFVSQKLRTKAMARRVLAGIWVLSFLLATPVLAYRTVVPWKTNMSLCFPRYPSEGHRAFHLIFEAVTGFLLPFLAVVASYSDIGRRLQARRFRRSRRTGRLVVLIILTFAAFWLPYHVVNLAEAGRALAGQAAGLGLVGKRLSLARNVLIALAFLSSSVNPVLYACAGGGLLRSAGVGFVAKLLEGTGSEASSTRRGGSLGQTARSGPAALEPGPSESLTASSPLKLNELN

| SMILES | inhibition at 1 µg/mL [1] [%] | inhibition at 10 µg/mL [1] [%] | inhibition at 10 µM [2] [%] | inhibition at 1 µM [2] [%] | inhibition in vivo at 0.05 % [3] [%] | inhibition in vivo at 1 % [3] [%] | inhibition in vivo at 0.01 % ([3]; 0.01% in ethanol gel) [%] |
| --- | --- | --- | --- | --- | --- | --- | --- |
| CCCc1cc(C(C)=O)c(Cl)cc1OCCCCC#N [Example 15, 5-(4-Acetyl-5-chloro-2-propylphenoxy)-pentanenitrile] | 33 | 91 | 35 | 13 | – | – | – |
| CCCCc1cc(C(C)=O)c(O)cc1OCCCCC#N [Example 30, 5-(4-Acetyl-2-butyl-5-hydroxyphenoxy)-pentanenitrile] | 32 | 91 | 37 | 7 | – | – | – |
| CC(=O)c1cc(CO)c(OCCCCCCC#N)cc1O [Example 36, 7-[4-Acetyl-5-hydroxy-2-(hydroxymethyl)-phenoxy]heptanenitrile] | 15 | 75 | 40 | 7 | – | – | – |
| C=CCc1cc(C(C)=O)c(O)cc1OCCCCCCCC [Example 38, 4-(Octyloxy)-5-allyl-2-hydroxyacetophenone] | -8 | 28 | 16 | 8 | – | – | – |
| CCc1cc(C(C)=O)c(O)cc1OCc1cccc(Cl)c1 [Example 56, 4-(3-Chlorobenzyloxy)-5-ethyl-2-hydroxyacetophenone] | – | – | 42 | 15 | 6 | – | – |
| CCc1cc(C(C)=O)c(O)cc1OCc1cccc(SC)c1 [Example 59, 4-(3-Methylmercaptobenzyloxy)-5-ethyl-2-hydroxyacetophenone] | – | – | 58 | 23 | 0 | – | – |
| C=CCc1cc(C(C)=O)c(O)cc1OCCCCN(C)C [Example 76, 4-[4-(Dimethylamino)butoxy]-2-hydroxy-5-allylacetophenone hydrochloride] | 39 | 79 | 0 | 0 | – | – | – |
| C=CCc1cc(C(C)=O)c(O)cc1OCCCCCCSC [Example 78, 2-Hydroxy-4-[6-(methylthio)hexyloxy]-5-allylaoetophenone] | – | – | 78 | 38 | – | 46 | – |
| CCc1cc(C(=O)c2ccccc2C(=O)O)c(O)cc1OCCCCC#N [Example 89, 2-[4-(4-Cyanobutoxy)-5-ethyl-2-hydroxybenzoyl]benzoic acid] | 9 | 39 | 11 | 15 | – | – | – |
| CCc1cc(C(=O)CCCCC(=O)O)c(O)cc1OCCCCC#N [Example 90, 6-[(4-Cyanobutoxy)-5-ethyl-2-hydroxybenzene]-6-oxohexanoic acid] | 3 | 47 | 1 | -2 | – | – | – |
| CCc1cc(C(=O)c2cccc(C(=O)O)c2)c(O)cc1OCCCCC#N [Example 92] | 5 | 38 | 40 | 20 | – | – | – |
| CCc1cc(C(C)=O)c(O)cc1OCCCCCCC(=O)N(C)C [Example 98, 7-(4-Acetyl-2-ethyl-5-hydroxyphenoxy)-N,N-dimethylheptanamide] | 14 | 85 | 100 | 61 | – | 17 | – |
| C=CCc1cc(C(=O)CCCCCCCCC)c(O)cc1OCCCCC#N [Example 107, 5-[5-Hydroxy-4-(1-oxodecyl)-2-allylphenoxy]pentanenitrile] | 47 | 26 | 10 | 6 | – | – | – |
| C=CCc1cc(C(C)=O)c(O)cc1OCCCCc1nn[nH]n1 [Example 109, 2-Hydroxy-5-allyl-4-[4-(lH-tetrazol-5-yl)-butoxy]acetophenon] | 7 | 56 | 41 | 3 | – | – | – |
| CCc1cc(C(C)=O)c(OC)cc1OCc1cccc(C#N)c1 [Example 114] | – | – | 52 | 8 | 40 | – | 44 |
| C=CCc1cc(C(C)=O)c(OC)cc1OCCCCC#N [Example 115, 5-(4-Acetyl-5-methoxy-2-allylphenoxy)pentanenitrile] | 29 | 96 | 12 to 16 | 7 to 8 | – | – | – |
| C=CCc1cc(C(C)=O)c(O)cc1OCc1cccc(-c2nnn(C)n2)c1 [Example 121] | – | – | 27 to 38 | 34 to 38 | 0 | – | – |
| CC(=O)c1cc(CC(C)O)c(OCCCCC#N)cc1O (centres unmarked) [Example 125, 5-[4-Acetyl-5-hydroxy-2-(2-hydroxypropyl)-phenoxy]pentanenitrile] | 30 | 85 | 10 | 6 | – | – | – |
| CCc1cc(C(=O)c2ccccc2)c(O)cc1OCCCCC#N [Example 130, 5-(4-Benzoyl-2-ethyl-5-hydroxyphenoxy)pentane-nitrile] | 41 | 99 | 48 | 23 | – | – | – |
| CCCc1cc(C(C)=O)c(O)cc1OCCCCC(=O)O [Example 132, 5-(4-Acetyl-5-hydroxy-2-propylphenoxy)pentanoic acid] | 15 | 59 | 0 | 0 | – | – | – |
